≈ marks a conversion by molar mass, not a printed value.

One series deals with K562. In words: Cytotoxicity against human K562 cells after 72 hrs by Alamar blue assay. Type of series: functional. The following applies: K562, 72 h.
Another series has as its system NCI-H1299. In words: Cytotoxicity against human NCI-H1299 cells after 72 hrs by Alamar blue assay. Type of series: functional. The following applies: NCI-H1299, 72 h.
Another series relates to KB-V1. The series can be described thus: Multidrug resistant ratio of GI50 for human KBV1 cells expressing p-glycoprotein to GI50 for wild type human KB-3-1 cells. Type of series: functional.
Series [1] in a line: Cytotoxicity against wild type human KB-3-1 cells. Type of series: functional.
The subject of another series is HCT-116. In words: Cytotoxicity against human HCT116 cells after 72 hrs by Alamar blue assay. In kind it is functional. The following applies: HCT-116, 72 h.
Series [2] is described as follows: Cytotoxicity against human KBV1 cells expressing p-glycoprotein. Type of series: functional. The following applies: KB-V1.
Series [3] addresses T1, Kinesin-like protein KIF11 (Homo sapiens, UniProt P52732).
T1 sequence (P52732 whole entry): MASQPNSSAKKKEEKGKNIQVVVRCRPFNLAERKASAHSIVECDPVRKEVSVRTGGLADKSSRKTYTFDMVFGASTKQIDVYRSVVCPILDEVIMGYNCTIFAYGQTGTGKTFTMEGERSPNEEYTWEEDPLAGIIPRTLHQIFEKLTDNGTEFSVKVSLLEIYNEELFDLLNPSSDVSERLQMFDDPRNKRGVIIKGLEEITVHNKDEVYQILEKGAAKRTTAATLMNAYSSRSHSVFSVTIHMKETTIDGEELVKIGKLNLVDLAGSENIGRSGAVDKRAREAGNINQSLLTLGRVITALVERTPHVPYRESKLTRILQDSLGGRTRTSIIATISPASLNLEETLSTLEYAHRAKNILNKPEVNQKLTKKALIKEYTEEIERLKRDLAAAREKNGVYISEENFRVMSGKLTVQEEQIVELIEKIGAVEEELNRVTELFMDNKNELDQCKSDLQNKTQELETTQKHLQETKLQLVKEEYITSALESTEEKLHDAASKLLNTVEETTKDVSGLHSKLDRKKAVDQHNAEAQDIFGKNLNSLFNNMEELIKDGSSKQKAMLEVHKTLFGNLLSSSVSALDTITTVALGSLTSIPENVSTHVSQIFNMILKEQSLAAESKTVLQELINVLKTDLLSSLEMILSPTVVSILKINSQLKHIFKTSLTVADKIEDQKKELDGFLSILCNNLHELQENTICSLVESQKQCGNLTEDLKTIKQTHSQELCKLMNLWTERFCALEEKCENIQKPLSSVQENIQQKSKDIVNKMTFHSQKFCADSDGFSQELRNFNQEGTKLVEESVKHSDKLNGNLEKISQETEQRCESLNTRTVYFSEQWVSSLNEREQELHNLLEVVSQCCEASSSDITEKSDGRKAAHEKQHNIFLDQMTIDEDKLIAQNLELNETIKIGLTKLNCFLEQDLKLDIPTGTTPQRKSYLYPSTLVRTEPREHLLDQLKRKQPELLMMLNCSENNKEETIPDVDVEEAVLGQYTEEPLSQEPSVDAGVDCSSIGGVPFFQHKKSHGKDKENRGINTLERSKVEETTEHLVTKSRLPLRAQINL
Description: Inhibition of basal ATPase activity of Eg5 by coupled pyruvate kinase/lactate dehydrogenase assay

Another series has as its system BXPC-3. The series can be described thus: Cytotoxicity against human BxPC3 cells after 72 hrs by Alamar blue assay. Type of series: functional. The following applies: BXPC-3, 72 h.
Series [4] is described as follows: Solubility of the compound in phosphate buffered saline at pH 7.4 after 2 hrs by turbidimetric analysis. Type of series: physicochemical.

As for `N[C@@H](CSC(Cc1ccccc1)(c1ccccc1)c1ccccc1)C(=O)O`, the GI50 in the series with K562 was 3.14 µM; in the series with NCI-H1299 it was 6.87 µM; in series [1] it was 5.33 µM; with HCT-116, 2.37 µM; in [2], more than 50 µM; in the series on BXPC-3, 14.3 µM. Moreover, in the series with KB-V1, the RatioGI50 is reported as more than 10. Further, the 50% inhibitory concentration (IC50) in [3] came out at 0.138 µM. In addition, in series [4], the solubility (kinetic) at 2 h was more than 100 µM.

In series [3], `NCCSC(Cc1ccccc1)(c1ccccc1)c1ccccc1` gave an IC50 of 0.684 µM. The molecule also showed a kinetic solubility at 2 h in series [4] of more than 100 µM.

On to `N[C@@H](CSC(CCc1ccccc1)(c1ccccc1)c1ccccc1)C(=O)O`, for which the IC50 in [3] is 15.8 µM.

In series [3], `N[C@@H](CSC(C(=O)c1ccccc1)(c1ccccc1)c1ccccc1)C(=O)O` registered an IC50 of more than 150 µM.

On to `N[C@@H](CSC(Cc1cccc(Cl)c1)(c1ccccc1)c1ccccc1)C(=O)O`, for which, in [3], half-maximal inhibition (IC50) required 0.238 µM.

In [3], `N[C@@H](CSC(Cc1ccc(Cl)cc1)(c1ccccc1)c1ccccc1)C(=O)O` yielded an IC50 of 0.456 µM. Against the preceding molecule, the IC50 is about 1.9-fold higher.

`N[C@@H](CSC(Cc1ccc(Cl)c(Cl)c1)(c1ccccc1)c1ccccc1)C(=O)O`: half-maximal inhibition in [3] (IC50) was put at 5.28 µM.

Molecule `NCCSC(c1ccccc1)(c1ccccc1)c1ccncc1` yielded an IC50 in series [3] of 0.942 µM. Against the preceding molecule, the IC50 is about 5.6-fold lower.

In [3], `NCCSC(C(=O)c1ccccc1)(c1ccccc1)c1ccccc1` yielded an IC50 of more than 50 µM.

`N[C@@H](CSC(Cc1ccccc1)(c1ccc(Cl)cc1)c1ccc(Cl)cc1)C(=O)O` displayed an IC50 in [3] of 0.252 µM.

In the case of `Cc1ccc(C(Cc2ccccc2)(SC[C@H](N)C(=O)O)c2ccc(C)cc2)cc1`, halving of growth with K562 (GI50) required 2.79 µM. 0.106 µM corresponded to half-maximal inhibition in [3] (IC50).

`NCCSC(Cc1ccccc1)(c1ccc(F)cc1)c1ccc(F)cc1`: in series [3], it took 0.588 µM to reach half-maximal inhibition (IC50). That is a sub-micromolar value.

In [3], `NCCSC(Cc1ccccc1)(c1ccc(Cl)cc1)c1ccc(Cl)cc1` yielded a 50% inhibitory concentration (IC50) of 0.404 µM.

In series [3], `Cc1ccc(C(Cc2ccccc2)(SCCN)c2ccc(C)cc2)cc1` yielded an IC50 of 0.261 µM.

In [3], `N[C@@H](CSC(c1ccccc1)(c1ccccc1)c1ccncc1)C(=O)O` came in with an IC50 of 0.514 µM.

For the molecule `NCCSC(c1ccccc1)(c1ccccc1)c1ccccc1`, the IC50 in [3] is 0.241 µM.

Molecule `N[C@@H](CSC(Cc1ccccc1)(c1ccccc1)c1ccccc1F)C(=O)O` (mixture of isomers) displayed a 50% inhibitory concentration (IC50) in [3] of 0.217 µM.

The molecule `N[C@@H](CSC(Cc1ccccc1)(c1ccccc1)c1cccc(Cl)c1)C(=O)O` (mixture of isomers) registered a 50% growth inhibitory concentration (GI50) in the series on K562 of 4.54 µM. Also, in series [3], half-maximal inhibition (IC50) was put at 0.129 µM.

The molecule `N[C@@H](CSC(Cc1ccccc1)(c1ccccc1)c1cccc(O)c1)C(=O)O` (mixture of isomers) gave a GI50 in the series on K562 of 17.7 µM. Moreover, in [3], it took 0.0676 µM to reach half-maximal inhibition (IC50).

With `N[C@@H](CSC(Cc1ccccc1)(c1ccccc1)c1ccc(F)cc1)C(=O)O` (mixture of isomers), growth in the series on K562 was halved (GI50) at 6.09 µM. Also, 0.151 µM corresponded to half-maximal inhibition in series [3] (IC50).

As for `N[C@@H](CSC(Cc1ccccc1)(c1ccccc1)c1ccc(Cl)cc1)C(=O)O` (mixture of isomers), the concentration for 50% growth inhibition (GI50) with K562 is 2.47 µM; in the series with NCI-H1299, 3.63 µM; in series [1], 4.89 µM; in the series with HCT-116, 2.08 µM; in [2], more than 50 µM; in the series on BXPC-3, 3.79 µM. In addition, the RatioGI50 with KB-V1 was more than 10. In [3], the concentration for half-maximal inhibition (IC50) worked out at 0.0586 µM.

As for `Cc1ccc(C(Cc2ccccc2)(SC[C@H](N)C(=O)O)c2ccccc2)cc1` (mixture of isomers), the GI50 in the series with K562 was 1.44 µM; in the series on NCI-H1299, 2.43 µM; in [1], 2.44 µM; with HCT-116 it was 1.49 µM; in series [2], more than 50 µM; in the series with BXPC-3, 4.33 µM. The RatioGI50 in the series with KB-V1 is more than 20. Moreover, half-maximal inhibition in [3] (IC50) required 0.168 µM. The kinetic solubility at 2 h in series [4] stood at 11.5 µM.

In the series on K562, `N[C@@H](CSC(Cc1ccccc1)(c1ccccc1)c1ccc(O)cc1)C(=O)O` (mixture of isomers) gave a concentration for 50% growth inhibition (GI50) of 18.2 µM. In series [3], this molecule displayed an IC50 of 0.159 µM.

Consider `N[C@@H](CSC(Cc1ccccc1)(c1ccccc1)c1ccc(Cl)c(Cl)c1)C(=O)O` (mixture of isomers), for which the IC50 in series [3] was determined as 0.191 µM.

In the case of `N[C@@H](CSC(Cc1ccccc1)(c1ccc(Cl)cc1)c1cccc(Cl)c1)C(=O)O` (mixture of isomers), the IC50 in series [3] is 0.568 µM.

The molecule `N[C@@H](CSC(Cc1ccccc1)(c1ccc(F)cc1)c1ccc(F)cc1)C(=O)O` (mixture of isomers) came in with a GI50 with K562 of 5.12 µM. The molecule also returned a half-inhibitory concentration (IC50) in series [3] of 0.178 µM.

Consider `NCCSC(Cc1ccccc1)(c1ccccc1)c1ccccc1F` (racemic), for which 0.79 µM corresponded to half-maximal inhibition in [3] (IC50). This counts as sub-micromolar.

Consider `NCCSC(Cc1ccccc1)(c1ccccc1)c1cccc(Cl)c1` (racemic), for which the concentration for half-maximal inhibition (IC50) in series [3] is 0.519 µM.

With `NCCSC(Cc1ccccc1)(c1ccccc1)c1cccc(O)c1` (racemic), the GI50 in the series on K562 was found to be 2.73 µM. Also, in series [3], the half-maximal inhibitory concentration (IC50) was 0.256 µM.

Take `NCCSC(Cc1ccccc1)(c1ccccc1)c1ccc(F)cc1` (racemic): 0.578 µM corresponded to half-maximal inhibition in series [3] (IC50).

In the case of `NCCSC(Cc1ccccc1)(c1ccccc1)c1ccc(Cl)cc1` (racemic), the 50% growth inhibitory concentration (GI50) came to 3.72 µM in the series with K562; 6.79 µM in the series with NCI-H1299; 5.55 µM in series [1]; 2.05 µM in the series on HCT-116; 5.78 µM in series [2]; 4.26 µM in the series with BXPC-3. Besides, the RatioGI50 in the series on KB-V1 was 1. Further, the half-inhibitory concentration (IC50) in series [3] amounted to 0.141 µM.

With `Cc1ccc(C(Cc2ccccc2)(SCCN)c2ccccc2)cc1` (racemic), the GI50 in the series on K562 came to 2.39 µM; in the series with NCI-H1299 it was 2.5 µM; in series [1], 1.88 µM; in the series on HCT-116 it was 1.17 µM; in series [2], 1.72 µM; with BXPC-3, 4.07 µM. For the same molecule, the RatioGI50 in the series with KB-V1 is 1. Also, the IC50 in [3] stood at 0.172 µM. Further, in [4], the solubility (kinetic) at 2 h stood at 6.5 µM (≈ 2.26 µg/mL).

Turning to `NCCSC(Cc1ccccc1)(c1ccccc1)c1ccc(O)cc1` (racemic), in [3], the 50% inhibitory concentration (IC50) worked out at 0.666 µM.

Molecule `NCCSC(Cc1ccccc1)(c1ccccc1)c1ccc(Cl)c(Cl)c1` (racemic) yielded a half-maximal inhibitory concentration (IC50) in series [3] of 0.229 µM.

`NCCSC(Cc1ccccc1)(c1ccc(Cl)cc1)c1cccc(Cl)c1` (racemic) showed an IC50 in series [3] of 0.437 µM.
